According to patent US8906909B2 (Curis, Inc., priority 2009, dated 2014):

Key:
[1] = target: T1, PI3Kβ (p110β/p85α) (Homo sapiens, UniProt P42338); test: PI3Kβ TR-FRET (HTRF) assay; type: biochemical; conditions: 10 μM ATP
T1 construct: N-terminal histidine-tagged recombinant full-length human p110β; His tag (N); made in house; host or cells: Baculovirus-infected Sf21 insect cells
Description: Activity of PI3Kβ was measured using time-resolved fluorescence resonance energy transfer (TR-FRET) assay utilizing homogenous time resolved fluorescence (HTRF) technology. PI3Kβ, a complex of N-terminal histidine-tagged recombinant full-length human p110β and untagged recombinant full length human p85α were coexpressed in a Baculovirus infected Sf21 cell expression system. (GenBank Accession No. for p110β, NM—006219; for p85α, XM—043865) The proteins are purified by one-step affinity chromatography using glutathione-agarose. A competition assay was performed to measure the amount of PIP3 generated from PIP2 in the presence of purified recombinant PI3 Kbeta (p110β/p85α). PI3Kβ was incubated with 10 μM PIP2 substrate in the reaction buffer (20 mM HEPES, pH 7.5, 10 mM NaCl, 4 mM MgCl2, 2 mM DTT, 10 μM ATP and 1% DMSO) for 30 minutes at 30° C. The reaction product was then mixed with a PIP3 detector protein, europium-labeled antibody, biotin-labeled PIP3 probe and allophycocyanin-labeled Streptavidin. A sensor complex is formed to generate a stable TR-FRET signal in the reaction mixture. This signal intensity decrease as biotin-labeled probe binding to the PIP3 detector is displaced by PIP3 produced by enzymatic activity and the amount of unbound biotin-labeled PIP3 probe in the mixture increases. TR-FRET signal was determined using microplate reader with background subtraction.

[2] = target: T2, PI3Kγ (p120γ) (Homo sapiens, UniProt P48736); test: PI3Kγ TR-FRET (HTRF) assay; type: biochemical; conditions: 10 μM ATP
T2 construct: His tag (N); made in house; host or cells: Baculovirus-infected Sf9 insect cells
T2 sequence (P48736 whole entry): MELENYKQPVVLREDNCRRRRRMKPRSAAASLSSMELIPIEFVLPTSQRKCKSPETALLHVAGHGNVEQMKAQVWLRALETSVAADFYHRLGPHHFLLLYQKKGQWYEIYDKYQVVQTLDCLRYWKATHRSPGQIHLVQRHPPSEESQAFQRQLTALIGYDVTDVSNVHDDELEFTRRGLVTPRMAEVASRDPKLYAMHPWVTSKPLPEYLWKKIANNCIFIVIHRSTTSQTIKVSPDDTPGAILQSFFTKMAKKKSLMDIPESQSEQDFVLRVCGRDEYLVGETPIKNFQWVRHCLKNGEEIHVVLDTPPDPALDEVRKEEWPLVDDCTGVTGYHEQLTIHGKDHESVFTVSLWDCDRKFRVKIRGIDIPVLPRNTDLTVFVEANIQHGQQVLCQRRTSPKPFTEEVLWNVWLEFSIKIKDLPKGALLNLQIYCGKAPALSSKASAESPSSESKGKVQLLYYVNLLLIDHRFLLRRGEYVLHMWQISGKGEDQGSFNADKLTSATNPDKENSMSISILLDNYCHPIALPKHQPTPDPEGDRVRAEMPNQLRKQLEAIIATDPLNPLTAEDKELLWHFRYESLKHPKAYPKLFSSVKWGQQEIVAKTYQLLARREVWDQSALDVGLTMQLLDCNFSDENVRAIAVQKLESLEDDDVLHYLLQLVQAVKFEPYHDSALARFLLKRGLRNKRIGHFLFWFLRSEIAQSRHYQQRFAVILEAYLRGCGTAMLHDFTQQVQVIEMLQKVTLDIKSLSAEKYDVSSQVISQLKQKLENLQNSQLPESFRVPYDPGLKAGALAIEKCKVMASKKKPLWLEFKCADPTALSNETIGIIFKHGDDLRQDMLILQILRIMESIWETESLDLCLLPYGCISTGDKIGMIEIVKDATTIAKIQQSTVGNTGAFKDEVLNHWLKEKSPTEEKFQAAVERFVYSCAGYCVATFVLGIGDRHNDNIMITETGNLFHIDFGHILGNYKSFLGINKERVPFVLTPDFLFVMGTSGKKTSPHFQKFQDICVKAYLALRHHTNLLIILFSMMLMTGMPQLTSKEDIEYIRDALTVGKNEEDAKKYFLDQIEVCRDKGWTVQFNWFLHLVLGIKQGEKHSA
Source text: The proteins are purified by one-step affinity chromatography using glutathione-agarose.

[3] = tested on: HDACs (HeLa cell nuclear extracts); test: HDAC enzymatic activity, Biomol Color de Lys system; type: biochemical
Summary of the method: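 HeLa nuclear extract as HDAC source with Color de Lys substrate in 50 mM Tris/Cl pH 8.0, 137 mM NaCl, 2.7 mM KCl, 1 mM MgCl2. Serially diluted compounds reacted 1 h at 25 °C, then developer added; fluorescence (Ex 350–380/Em 440–460) fitted sigmoidally for IC50.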

[4] = tested on: Sk-Mel-28 cells; test: Cell proliferation assay Method A (ATPlite), Sk-Mel-28; type: cell-based; conditions: Homo sapiens, 72 hours, read-out: antiproliferative activity IC50, Sk-Mel-28
Summary of the method: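 Cells seeded at 5,000–10,000 per well with graded compound concentrations and cultured 72 h in 0.5% fetal bovine serum. Growth inhibition read as cellular ATP content by firefly luciferase luminescence (ATPlite).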

[5] = tested on: UACC-893 cells; test: Cell proliferation assay Method B, UACC-893; type: cell-based; conditions: Homo sapiens, Breast, 72 hours, read-out: antiproliferative activity IC50, UACC-893
Description: (§1) Cancer cell lines were plated at 5,000 to 10,000 per well in 96-well flat bottomed plates with various concentration of compounds. The cells were incubated with compounds for 72 hours in the presence of 0.5% of fetal bovine serum. Growth inhibition was accessed by adenosine triphosphate (ATP) content assay using Promega CellTiter-Glo kit. Promega CellTiter-Glo kit is an ATP monitoring system based on firefly luciferase. Briefly, 16 μl of mammalian cell lysis and substrate solution was added to 84 μl of culture medium per well to lyse the cells and stabilize the ATP. The mixture was shaken and incubated for 30 minutes and subsequently the luminescence was measured.

[6] = tested on: MDA-MB-468 cells; test: Cell proliferation assay Method B, MDA-MB-468; type: cell-based; conditions: Homo sapiens, Breast, Method B, 72 hours, read-out: antiproliferative activity IC50, MDA-MB-468
Description: as §1

[7] = tested on: HCC1937 cells; test: Cell proliferation assay Method B, HCC1937; type: cell-based; conditions: Homo sapiens, Breast, Method B, 72 hours, read-out: antiproliferative activity IC50, HCC1937
Description: as §1

[8] = tested on: SUP-B15 cells; test: Cell proliferation assay Method B, SUP-B15; type: cell-based; conditions: Homo sapiens, ALL, 72 hours, read-out: antiproliferative activity IC50, SUP-B15
Description: as §1

[9] = tested on: U937 cells; test: Cell proliferation assay Method B, U937; type: cell-based; conditions: Homo sapiens, U-937, AML, 72 hours, read-out: antiproliferative activity IC50, U937
Description: as §1

[10] = tested on: K562 cells; test: Cell proliferation assay Method B, K562; type: cell-based; conditions: Homo sapiens, CML, 72 hours, read-out: antiproliferative activity IC50, K562
Description: as §1

[11] = tested on: WiDr cells; test: Cell proliferation assay Method B, WiDr; type: cell-based; conditions: Homo sapiens, Colon, 72 hours, read-out: antiproliferative activity IC50, WiDr
Description: as §1

[12] = tested on: HCT116 cells; test: Cell proliferation assay Method B, HCT116; type: cell-based; conditions: Homo sapiens, HCT-116, Colon, 72 hours, read-out: antiproliferative activity IC50, HCT116
Description: as §1

[13] = tested on: SW620 cells; test: Cell proliferation assay Method B, SW620; type: cell-based; conditions: Homo sapiens, SW-620, Colon, 72 hours, read-out: antiproliferative activity IC50, SW620
Description: as §1

[14] = tested on: T-84 cells; test: Cell proliferation assay Method B, T-84; type: cell-based; conditions: Homo sapiens, T84, Colon, 72 hours, read-out: antiproliferative activity IC50, T-84
Description: as §1

[15] = tested on: H292 cells; test: Cell proliferation assay Method B, H292; type: cell-based; conditions: Homo sapiens, NCI-H292, NSCLC, 72 hours, read-out: antiproliferative activity IC50, H292
Description: as §1

[16] = tested on: H2122 cells; test: Cell proliferation assay Method B, H2122; type: cell-based; conditions: Homo sapiens, NCI-H2122, NSCLC, 72 hours, read-out: antiproliferative activity IC50, H2122
Description: as §1

[17] = tested on: H460 cells; test: Cell proliferation assay Method B, H460; type: cell-based; conditions: Homo sapiens, NCI-H460, NSCLC, 72 hours, read-out: antiproliferative activity IC50, H460
Description: as §1

[18] = tested on: Calu6 cells; test: Cell proliferation assay Method B, Calu6; type: cell-based; conditions: Homo sapiens, Calu-6, NSCLC, 72 hours, read-out: antiproliferative activity IC50, Calu6
Description: as §1

[19] = tested on: CaPan2 cells; test: Cell proliferation assay Method B, CaPan2; type: cell-based; conditions: Homo sapiens, Capan-2, Pancreas, 72 hours, read-out: antiproliferative activity IC50, CaPan2
Description: as §1

[20] = tested on: PANC-1 cells; test: Cell proliferation assay Method B, PANC-1; type: cell-based; conditions: Homo sapiens, Pancreas, 72 hours, read-out: antiproliferative activity IC50, PANC-1
Description: as §1

[21] = tested on: SW1990 cells; test: Cell proliferation assay Method B, SW1990; type: cell-based; conditions: Homo sapiens, Pancreas, 72 hours, read-out: antiproliferative activity IC50, SW1990
Description: as §1

[22] = tested on: OPM-2 cells; test: Cell proliferation assay Method B, OPM-2; type: cell-based; conditions: Homo sapiens, Multiple Myeloma, 72 hours, read-out: antiproliferative activity IC50, OPM-2
Description: as §1

T1 sequence (P42338 whole entry): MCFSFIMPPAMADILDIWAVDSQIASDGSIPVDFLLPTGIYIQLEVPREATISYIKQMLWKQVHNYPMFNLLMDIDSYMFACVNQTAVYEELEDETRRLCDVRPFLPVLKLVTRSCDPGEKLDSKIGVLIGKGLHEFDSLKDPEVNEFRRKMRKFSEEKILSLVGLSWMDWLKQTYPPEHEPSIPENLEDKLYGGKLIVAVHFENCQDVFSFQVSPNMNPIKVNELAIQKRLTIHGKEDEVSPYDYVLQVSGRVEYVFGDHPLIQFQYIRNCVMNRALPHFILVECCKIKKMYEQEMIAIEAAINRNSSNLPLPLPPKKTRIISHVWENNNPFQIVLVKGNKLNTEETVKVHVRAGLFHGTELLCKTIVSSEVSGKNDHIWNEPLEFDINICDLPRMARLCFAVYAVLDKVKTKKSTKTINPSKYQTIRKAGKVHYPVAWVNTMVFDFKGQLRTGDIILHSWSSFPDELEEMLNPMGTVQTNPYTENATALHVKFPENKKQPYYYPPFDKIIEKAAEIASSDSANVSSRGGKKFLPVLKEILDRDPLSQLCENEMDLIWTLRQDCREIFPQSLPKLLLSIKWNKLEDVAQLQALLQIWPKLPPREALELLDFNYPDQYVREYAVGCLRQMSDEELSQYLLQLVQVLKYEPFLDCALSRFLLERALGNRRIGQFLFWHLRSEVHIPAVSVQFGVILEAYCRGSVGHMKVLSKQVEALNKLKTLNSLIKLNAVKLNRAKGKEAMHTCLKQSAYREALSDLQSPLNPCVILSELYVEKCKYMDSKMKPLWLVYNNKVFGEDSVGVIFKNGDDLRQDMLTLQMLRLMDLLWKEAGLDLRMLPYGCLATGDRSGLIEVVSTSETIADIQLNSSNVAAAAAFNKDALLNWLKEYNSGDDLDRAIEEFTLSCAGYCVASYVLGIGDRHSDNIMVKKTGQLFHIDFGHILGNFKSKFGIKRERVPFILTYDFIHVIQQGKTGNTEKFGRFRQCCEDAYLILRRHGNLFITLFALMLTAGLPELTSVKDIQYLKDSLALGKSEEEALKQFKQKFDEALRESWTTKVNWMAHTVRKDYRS
T1 sequence (P27986 whole entry partner): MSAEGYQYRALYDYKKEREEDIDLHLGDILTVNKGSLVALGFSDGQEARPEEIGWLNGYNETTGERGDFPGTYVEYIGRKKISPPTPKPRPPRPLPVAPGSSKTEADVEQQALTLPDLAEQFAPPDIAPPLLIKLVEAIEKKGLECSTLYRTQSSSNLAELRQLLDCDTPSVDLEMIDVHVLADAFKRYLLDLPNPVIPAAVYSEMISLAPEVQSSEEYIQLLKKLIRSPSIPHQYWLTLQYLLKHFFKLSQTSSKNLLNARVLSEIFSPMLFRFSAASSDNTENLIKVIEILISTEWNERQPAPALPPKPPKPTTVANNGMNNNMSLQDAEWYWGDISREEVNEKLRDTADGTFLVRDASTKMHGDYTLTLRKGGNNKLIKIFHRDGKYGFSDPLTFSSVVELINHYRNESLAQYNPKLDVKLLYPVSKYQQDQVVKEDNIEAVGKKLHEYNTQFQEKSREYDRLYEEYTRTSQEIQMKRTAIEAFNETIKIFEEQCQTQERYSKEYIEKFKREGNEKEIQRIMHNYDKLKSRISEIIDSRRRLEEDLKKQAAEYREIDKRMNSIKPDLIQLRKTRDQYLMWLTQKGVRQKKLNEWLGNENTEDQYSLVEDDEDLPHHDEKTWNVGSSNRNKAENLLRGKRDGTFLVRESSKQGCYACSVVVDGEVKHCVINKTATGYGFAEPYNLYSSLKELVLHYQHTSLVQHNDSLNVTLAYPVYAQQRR

CN(Cc1cc2nc(-c3ccc(N)cc3)nc(N3CCOCC3)c2s1)c1ncc(C(=O)NO)cn1 [Compound 150, 2-(((2-(4-aminophenyl)-4-morpholinothieno[3,2-d]pyrimidin-6-yl)methyl)(methyl)amino)-N-hydroxypyrimidine-5-carboxamide]
IC50 [1]: < 100 nM | IC50 [2]: 100 to 1000 nM | IC50 [3]: < 100 nM | IC50 [4]: < 100 nM | IC50 [5]: < 10 nM | IC50 [6]: 10 to 100 nM | IC50 [7]: < 10 nM | IC50 [8]: < 10 nM | IC50 [9]: < 10 nM | IC50 [10]: 10 to 100 nM

CS(=O)(=O)N1CCN(Cc2cc3nc(-c4cccc5[nH]ncc45)nc(N4CCOCC4)c3s2)CC1 [GDC-0941, reference compound]
IC50 [11]: > 10000 nM | IC50 [12]: 1000 to 10000 nM | IC50 [13]: > 10000 nM | IC50 [14]: 1000 to 10000 nM | IC50 [15]: 1000 to 10000 nM | IC50 [16]: 1000 to 10000 nM | IC50 [17]: > 10000 nM | IC50 [18]: > 10000 nM | IC50 [19]: > 10000 nM | IC50 [20]: 1000 to 10000 nM | IC50 [21]: > 10000 nM | IC50 [5]: 1000 to 10000 nM | IC50 [7]: 100 to 1000 nM | IC50 [9]: 1000 to 10000 nM | IC50 [10]: > 10000 nM | IC50 [22]: 100 to 1000 nM
